Experimental findings from the supplement of paper PMC10307832 are described below.

Common to all, as to test: relative viability (nuclei count vs DMSO), 5 days (fraction); higher = more cells survive
Compound in the assay “Carfilzomib + Decitabine”: CC(C)C[C@H](NC(=O)[C@H](CCc1ccccc1)NC(=O)CN1CCOCC1)C(=O)N[C@@H](Cc1ccccc1)C(=O)N[C@@H](CC(C)C)C(=O)[C@@]1(C)CO1 [Carfilzomib] + Nc1ncn([C@H]2C[C@H](O)[C@@H](CO)O2)c(=O)n1 [Decitabine] (partner 2 µM)
In short, it runs like this: (§1)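 Nuclei were stained with Hoechst during a one-step fixation (final 0.05% Triton X-100, 1% formaldehyde, 1 ug/ml Hoechst) carried out 5 days after dosing, then counted on 4× images. The cells, lung cancer lines in 1536-well plates, had been dosed by pin tool the day after seeding with one drug alone or a fixed anchor-drug dose plus five library-drug doses (not always all listed) in √10 steps. Relative viability is the nuclei count in treated wells divided by that in vehicle wells, and each value is the median of duplicate plates.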

Compound in the assay “Carfilzomib + Vorinostat”: CC(C)C[C@H](NC(=O)[C@H](CCc1ccccc1)NC(=O)CN1CCOCC1)C(=O)N[C@@H](Cc1ccccc1)C(=O)N[C@@H](CC(C)C)C(=O)[C@@]1(C)CO1 [Carfilzomib] + O=C(CCCCCCC(=O)Nc1ccccc1)NO [Vorinostat] (partner 1 µM)
In short, it runs like this: as §1

Compound in the assay “Crizotinib + Dasatinib”: C[C@@H](Oc1cc(-c2cnn(C3CCNCC3)c2)cnc1N)c1c(Cl)ccc(F)c1Cl [Crizotinib] + Cc1nc(Nc2ncc(C(=O)Nc3c(C)cccc3Cl)s2)cc(N2CCN(CCO)CC2)n1 [Dasatinib] (partner 0.075 µM)
In a few lines:
as §1

Compound in the assay “Olaparib + Navitoclax”: O=C(c1cc(Cc2n[nH]c(=O)c3ccccc23)ccc1F)N1CCN(C(=O)C2CC2)CC1 [Olaparib] + CC1(C)CCC(c2ccc(Cl)cc2)=C(CN2CCN(c3ccc(C(=O)NS(=O)(=O)c4ccc(N[C@H](CCN5CCOCC5)CSc5ccccc5)c(S(=O)(=O)C(F)(F)F)c4)cc3)CC2)C1 [Navitoclax] (partner 0.5 µM)
In a few lines:
as §1

With UMC-11, the relative viability was found to be 0.603 with Carfilzomib + Decitabine (first compound 0.001 µM); 0.609 in the assay with Carfilzomib + Decitabine (first compound 0.003162 µM); 0.54 with Carfilzomib + Decitabine (first compound 0.01 µM); 0.819 in the assay with Carfilzomib + Decitabine (first compound 0.03162 µM); 0.459 with Carfilzomib + Decitabine (first compound 0.1 µM); 0.413 with Carfilzomib + Vorinostat (first compound 0.001 µM). Also, the relative viability with Carfilzomib + Vorinostat (first compound 0.003162 µM) turned out to be 0.395; in the assay with Carfilzomib + Vorinostat (first compound 0.01 µM), 0.394; in the assay with Carfilzomib + Vorinostat (first compound 0.03162 µM) it was 0.308; with Carfilzomib + Vorinostat (first compound 0.1 µM), 0.115; with Crizotinib + Dasatinib (first compound 0.01 µM), 0.381; with Crizotinib + Dasatinib (first compound 0.03162 µM) it was 0.468. Further, the relative viability with Crizotinib + Dasatinib (first compound 0.1 µM) amounted to 0.426; with Crizotinib + Dasatinib (first compound 0.3162 µM), 0.282; with Crizotinib + Dasatinib (first compound 1 µM), 0.502; with Olaparib + Navitoclax (first compound 0.08 µM), 0.398; in the assay with Olaparib + Navitoclax (first compound 0.253 µM), 0.321; with Olaparib + Navitoclax (first compound 2.53 µM), 0.259. Further, the relative viability with Olaparib + Navitoclax (first compound 8 µM) was determined as 0.207.

HCC-44: the relative viability was 0.939 in the assay with Carfilzomib + Decitabine (first compound 0.001 µM); 0.893 in the assay with Carfilzomib + Decitabine (first compound 0.003162 µM); 0.917 in the assay with Carfilzomib + Decitabine (first compound 0.01 µM); 0.973 in the assay with Carfilzomib + Decitabine (first compound 0.03162 µM); 0.639 with Carfilzomib + Decitabine (first compound 0.1 µM); 1.2 with Carfilzomib + Vorinostat (first compound 0.001 µM). The relative viability in the assay with Carfilzomib + Vorinostat (first compound 0.003162 µM) amounted to 1.1; in the assay with Carfilzomib + Vorinostat (first compound 0.01 µM) it was 1.13; in the assay with Carfilzomib + Vorinostat (first compound 0.03162 µM), 1.17; with Carfilzomib + Vorinostat (first compound 0.1 µM) it was 0.604; with Olaparib + Navitoclax (first compound 0.08 µM), 0.913; with Olaparib + Navitoclax (first compound 0.253 µM), 0.941. In addition, the relative viability in the assay with Olaparib + Navitoclax (first compound 2.53 µM) is 0.934; with Olaparib + Navitoclax (first compound 8 µM), 0.933.

Take Calu-6: the relative viability is 0.859 in the assay with Olaparib + Navitoclax (first compound 0.08 µM), 0.741 in the assay with Olaparib + Navitoclax (first compound 0.253 µM), 0.764 in the assay with Olaparib + Navitoclax (first compound 2.53 µM) and 0.506 with Olaparib + Navitoclax (first compound 8 µM).

With NCI-H2342, the relative viability was 0.711 with Carfilzomib + Decitabine (first compound 0.001 µM); 0.78 with Carfilzomib + Decitabine (first compound 0.003162 µM); 0.782 with Carfilzomib + Decitabine (first compound 0.01 µM); 0.887 in the assay with Carfilzomib + Decitabine (first compound 0.03162 µM); 0.585 with Carfilzomib + Decitabine (first compound 0.1 µM); 0.731 in the assay with Carfilzomib + Vorinostat (first compound 0.001 µM). For the same cell line, the relative viability with Carfilzomib + Vorinostat (first compound 0.003162 µM) is 0.675; with Carfilzomib + Vorinostat (first compound 0.01 µM), 0.876; with Carfilzomib + Vorinostat (first compound 0.03162 µM), 0.733; in the assay with Carfilzomib + Vorinostat (first compound 0.1 µM) it was 0.421; with Crizotinib + Dasatinib (first compound 0.01 µM) it was 0.302; with Crizotinib + Dasatinib (first compound 0.03162 µM), 0.334. The relative viability turned out to be 0.303 with Crizotinib + Dasatinib (first compound 0.1 µM), 0.349 in the assay with Crizotinib + Dasatinib (first compound 0.3162 µM) and 0.291 with Crizotinib + Dasatinib (first compound 1 µM).

Take NCI-H522: the relative viability with Carfilzomib + Decitabine (first compound 0.001 µM) turned out to be 0.582; with Carfilzomib + Decitabine (first compound 0.003162 µM), 0.631; with Carfilzomib + Decitabine (first compound 0.01 µM), 0.615; with Carfilzomib + Decitabine (first compound 0.03162 µM) it was 0.584; with Carfilzomib + Decitabine (first compound 0.1 µM) it was 0.353; with Carfilzomib + Vorinostat (first compound 0.001 µM) it was 0.888. Moreover, the relative viability was 1.01 with Carfilzomib + Vorinostat (first compound 0.003162 µM); 0.841 in the assay with Carfilzomib + Vorinostat (first compound 0.01 µM); 0.426 with Carfilzomib + Vorinostat (first compound 0.03162 µM); 0.412 with Carfilzomib + Vorinostat (first compound 0.1 µM); 0.945 with Crizotinib + Dasatinib (first compound 0.01 µM); 0.875 in the assay with Crizotinib + Dasatinib (first compound 0.1 µM). For the same cell line, the relative viability came out at 0.938 in the assay with Crizotinib + Dasatinib (first compound 0.3162 µM) and 0.944 with Crizotinib + Dasatinib (first compound 1 µM).

For the cell line NCI-H1623, the relative viability with Crizotinib + Dasatinib (first compound 0.01 µM) was 0.455; with Crizotinib + Dasatinib (first compound 0.03162 µM), 0.502; with Crizotinib + Dasatinib (first compound 0.1 µM), 0.499; with Crizotinib + Dasatinib (first compound 0.3162 µM) it was 0.454; with Crizotinib + Dasatinib (first compound 1 µM), 0.505.

SW 900: the relative viability with Carfilzomib + Decitabine (first compound 0.003162 µM) was found to be 0.5; in the assay with Carfilzomib + Decitabine (first compound 0.01 µM), 0.344; with Carfilzomib + Decitabine (first compound 0.03162 µM), 0.197; with Carfilzomib + Decitabine (first compound 0.1 µM), 0.22; with Carfilzomib + Vorinostat (first compound 0.003162 µM) it was 0.469; with Carfilzomib + Vorinostat (first compound 0.01 µM), 0.198. The relative viability came out at 0.168 with Carfilzomib + Vorinostat (first compound 0.03162 µM); 0.188 with Carfilzomib + Vorinostat (first compound 0.1 µM); 0.449 with Crizotinib + Dasatinib (first compound 0.01 µM); 0.518 with Crizotinib + Dasatinib (first compound 0.03162 µM); 0.763 with Crizotinib + Dasatinib (first compound 0.1 µM); 0.597 in the assay with Crizotinib + Dasatinib (first compound 0.3162 µM). Also, the relative viability in the assay with Crizotinib + Dasatinib (first compound 1 µM) is 0.633.

Consider NCI-H2228, for which the relative viability with Carfilzomib + Vorinostat (first compound 0.001 µM) was found to be 0.728; in the assay with Carfilzomib + Vorinostat (first compound 0.003162 µM) it was 0.657; with Carfilzomib + Vorinostat (first compound 0.01 µM), 0.468; in the assay with Carfilzomib + Vorinostat (first compound 0.03162 µM) it was 0.101; with Carfilzomib + Vorinostat (first compound 0.1 µM), 0.0952; in the assay with Crizotinib + Dasatinib (first compound 0.01 µM) it was 0.459. For the same cell line, the relative viability with Crizotinib + Dasatinib (first compound 0.03162 µM) amounted to 0.566; in the assay with Crizotinib + Dasatinib (first compound 0.1 µM), 0.575; with Crizotinib + Dasatinib (first compound 0.3162 µM) it was 0.26; in the assay with Crizotinib + Dasatinib (first compound 1 µM) it was 0.112; in the assay with Olaparib + Navitoclax (first compound 0.08 µM), 1.14; in the assay with Olaparib + Navitoclax (first compound 0.253 µM), 0.809. The relative viability came to 0.707 in the assay with Olaparib + Navitoclax (first compound 2.53 µM) and 0.587 with Olaparib + Navitoclax (first compound 8 µM).

For the cell line NCI-H1299, the relative viability stood at 1.07 with Olaparib + Navitoclax (first compound 0.08 µM), 0.995 with Olaparib + Navitoclax (first compound 0.253 µM), 1.04 with Olaparib + Navitoclax (first compound 2.53 µM) and 0.944 with Olaparib + Navitoclax (first compound 8 µM).

Consider NCI-H358, for which the relative viability with Carfilzomib + Decitabine (first compound 0.001 µM) was 0.208; with Carfilzomib + Decitabine (first compound 0.003162 µM), 0.24; with Carfilzomib + Decitabine (first compound 0.01 µM) it was 0.181; with Carfilzomib + Decitabine (first compound 0.03162 µM) it was 0.0811; with Carfilzomib + Decitabine (first compound 0.1 µM) it was 0.0784; with Carfilzomib + Vorinostat (first compound 0.001 µM), 0.69. The relative viability was found to be 0.692 with Carfilzomib + Vorinostat (first compound 0.003162 µM); 0.515 in the assay with Carfilzomib + Vorinostat (first compound 0.01 µM); 0.0656 with Carfilzomib + Vorinostat (first compound 0.03162 µM); 0.0773 with Carfilzomib + Vorinostat (first compound 0.1 µM); 0.137 with Crizotinib + Dasatinib (first compound 0.01 µM); 0.163 in the assay with Crizotinib + Dasatinib (first compound 0.03162 µM). Besides, the relative viability was found to be 0.147 in the assay with Crizotinib + Dasatinib (first compound 0.1 µM), 0.151 with Crizotinib + Dasatinib (first compound 0.3162 µM) and 0.156 with Crizotinib + Dasatinib (first compound 1 µM).

Turning to ABC-1, the relative viability with Carfilzomib + Decitabine (first compound 0.001 µM) worked out at 1.24; in the assay with Carfilzomib + Decitabine (first compound 0.003162 µM), 1.34; with Carfilzomib + Decitabine (first compound 0.01 µM), 0.539; with Carfilzomib + Decitabine (first compound 0.03162 µM), 0.274; with Carfilzomib + Decitabine (first compound 0.1 µM) it was 0.285; with Carfilzomib + Vorinostat (first compound 0.001 µM), 0.706. In addition, the relative viability with Carfilzomib + Vorinostat (first compound 0.003162 µM) turned out to be 0.534; with Carfilzomib + Vorinostat (first compound 0.01 µM) it was 0.35; with Carfilzomib + Vorinostat (first compound 0.03162 µM), 0.274; with Carfilzomib + Vorinostat (first compound 0.1 µM), 0.257; with Crizotinib + Dasatinib (first compound 0.03162 µM), 0.534; in the assay with Crizotinib + Dasatinib (first compound 0.1 µM), 0.54. For the same cell line, the values for the relative viability in the assay with Crizotinib + Dasatinib (first compound 0.3162 µM) and with Crizotinib + Dasatinib (first compound 1 µM) were 0.501 and 0.616, respectively.

Regarding IA-LM, the relative viability with Carfilzomib + Vorinostat (first compound 0.001 µM) amounted to 0.921; with Carfilzomib + Vorinostat (first compound 0.003162 µM), 0.889; in the assay with Carfilzomib + Vorinostat (first compound 0.01 µM), 0.932; in the assay with Carfilzomib + Vorinostat (first compound 0.03162 µM), 0.193; with Carfilzomib + Vorinostat (first compound 0.1 µM) it was 0.0116; in the assay with Olaparib + Navitoclax (first compound 0.08 µM), 0.825. Also, the relative viability in the assay with Olaparib + Navitoclax (first compound 0.253 µM) came out at 0.784; with Olaparib + Navitoclax (first compound 2.53 µM), 0.707; in the assay with Olaparib + Navitoclax (first compound 8 µM) it was 0.502.

As for EBC-1, the relative viability was found to be 0.46 with Olaparib + Navitoclax (first compound 0.08 µM), 0.403 with Olaparib + Navitoclax (first compound 0.253 µM), 0.44 in the assay with Olaparib + Navitoclax (first compound 2.53 µM) and 0.318 in the assay with Olaparib + Navitoclax (first compound 8 µM).

In the case of NCI-H1703, the relative viability with Olaparib + Navitoclax (first compound 0.08 µM) was 1.29; with Olaparib + Navitoclax (first compound 0.253 µM), 1.06; with Olaparib + Navitoclax (first compound 2.53 µM) it was 1.05; with Olaparib + Navitoclax (first compound 8 µM), 1.43.
